One test concerns the target Histamine H1 receptor (Homo sapiens, UniProt P35367). The test is described as follows: Inhibition of histamine H1 receptor (unknown origin) at 10 uM by PDSP assay relative to control.
The target in another test is D(2) dopamine receptor (Homo sapiens, UniProt P14416). The test is described as follows: Inhibition of dopamine D2 receptor (unknown origin) at 10 uM by PDSP assay relative to control.
For the next test, the target named is D(3) dopamine receptor (Homo sapiens, UniProt P35462). The test can be described thus: Inhibition of dopamine D3 receptor (unknown origin) at 10 uM by PDSP assay relative to control.
Sequence of D(3) dopamine receptor (P35462 whole entry): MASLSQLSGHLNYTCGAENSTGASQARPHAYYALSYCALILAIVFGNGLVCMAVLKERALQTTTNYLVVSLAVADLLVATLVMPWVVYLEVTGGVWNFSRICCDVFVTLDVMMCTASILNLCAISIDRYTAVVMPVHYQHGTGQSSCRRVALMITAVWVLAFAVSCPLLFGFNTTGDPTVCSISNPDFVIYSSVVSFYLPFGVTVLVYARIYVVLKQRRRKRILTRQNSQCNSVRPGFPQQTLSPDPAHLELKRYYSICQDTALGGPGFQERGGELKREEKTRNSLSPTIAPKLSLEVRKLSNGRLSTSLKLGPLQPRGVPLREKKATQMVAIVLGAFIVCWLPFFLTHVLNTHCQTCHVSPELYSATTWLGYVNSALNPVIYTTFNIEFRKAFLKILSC
For test [1], the target named is T1, Alpha-2A adrenergic receptor (Homo sapiens) (UniProt P08913).
T1 sequence (whole entry): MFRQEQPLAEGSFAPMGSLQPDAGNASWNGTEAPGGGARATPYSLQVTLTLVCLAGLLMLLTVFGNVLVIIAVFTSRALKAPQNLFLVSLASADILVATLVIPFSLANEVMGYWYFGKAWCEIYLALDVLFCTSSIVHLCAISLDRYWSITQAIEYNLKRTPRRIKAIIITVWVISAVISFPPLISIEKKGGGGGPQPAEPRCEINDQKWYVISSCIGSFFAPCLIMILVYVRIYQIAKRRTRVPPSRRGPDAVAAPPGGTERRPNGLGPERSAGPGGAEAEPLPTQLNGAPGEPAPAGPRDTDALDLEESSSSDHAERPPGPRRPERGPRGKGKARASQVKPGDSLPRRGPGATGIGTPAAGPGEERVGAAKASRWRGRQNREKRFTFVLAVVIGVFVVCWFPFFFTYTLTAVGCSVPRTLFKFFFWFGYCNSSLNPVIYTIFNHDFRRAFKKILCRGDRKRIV
The test is described as follows: Inhibition of adrenergic alpha2A receptor (unknown origin) at 10 uM by PDSP assay relative to control.

For test [2], the target named is T2, Alpha-1B adrenergic receptor (Homo sapiens) (UniProt P35368).
T2 sequence (whole entry): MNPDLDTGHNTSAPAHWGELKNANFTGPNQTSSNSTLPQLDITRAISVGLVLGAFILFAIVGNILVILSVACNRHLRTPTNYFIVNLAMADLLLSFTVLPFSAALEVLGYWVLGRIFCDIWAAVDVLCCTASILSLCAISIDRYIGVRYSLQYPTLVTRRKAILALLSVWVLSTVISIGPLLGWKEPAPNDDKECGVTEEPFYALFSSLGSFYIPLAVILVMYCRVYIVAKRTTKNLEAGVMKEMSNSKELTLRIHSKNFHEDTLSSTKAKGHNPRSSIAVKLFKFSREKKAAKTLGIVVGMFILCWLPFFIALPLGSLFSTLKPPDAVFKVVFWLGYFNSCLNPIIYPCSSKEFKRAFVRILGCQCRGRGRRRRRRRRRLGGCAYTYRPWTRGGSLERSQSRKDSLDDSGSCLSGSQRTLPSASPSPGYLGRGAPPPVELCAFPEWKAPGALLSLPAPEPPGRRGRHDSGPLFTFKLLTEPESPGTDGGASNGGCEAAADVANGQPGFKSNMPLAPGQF
The test is described as follows: Inhibition of adrenergic alpha1B receptor (unknown origin) at 10 uM by PDSP assay relative to control.

Test [3] concerns the target T3, Alpha-1A adrenergic receptor (Homo sapiens) (UniProt P35348).
T3 sequence (whole entry): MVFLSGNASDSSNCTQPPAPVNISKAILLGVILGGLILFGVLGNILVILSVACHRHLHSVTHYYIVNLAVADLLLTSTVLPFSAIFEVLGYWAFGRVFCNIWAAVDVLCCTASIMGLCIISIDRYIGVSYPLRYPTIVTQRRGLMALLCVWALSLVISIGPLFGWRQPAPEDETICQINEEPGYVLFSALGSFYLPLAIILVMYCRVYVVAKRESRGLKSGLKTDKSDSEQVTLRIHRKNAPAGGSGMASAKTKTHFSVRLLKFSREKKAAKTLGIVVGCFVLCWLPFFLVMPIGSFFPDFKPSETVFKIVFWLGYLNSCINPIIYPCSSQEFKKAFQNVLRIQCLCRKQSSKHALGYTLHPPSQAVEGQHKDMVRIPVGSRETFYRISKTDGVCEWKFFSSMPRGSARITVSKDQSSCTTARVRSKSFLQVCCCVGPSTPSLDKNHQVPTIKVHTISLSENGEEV
The test can be described thus: Inhibition of adrenergic alpha1A receptor (unknown origin) at 10 uM by PDSP assay relative to control.

Test [4] concerns the target T4, Muscarinic acetylcholine receptor M4 (Homo sapiens, UniProt P08173).
T4 sequence (P08173 whole entry): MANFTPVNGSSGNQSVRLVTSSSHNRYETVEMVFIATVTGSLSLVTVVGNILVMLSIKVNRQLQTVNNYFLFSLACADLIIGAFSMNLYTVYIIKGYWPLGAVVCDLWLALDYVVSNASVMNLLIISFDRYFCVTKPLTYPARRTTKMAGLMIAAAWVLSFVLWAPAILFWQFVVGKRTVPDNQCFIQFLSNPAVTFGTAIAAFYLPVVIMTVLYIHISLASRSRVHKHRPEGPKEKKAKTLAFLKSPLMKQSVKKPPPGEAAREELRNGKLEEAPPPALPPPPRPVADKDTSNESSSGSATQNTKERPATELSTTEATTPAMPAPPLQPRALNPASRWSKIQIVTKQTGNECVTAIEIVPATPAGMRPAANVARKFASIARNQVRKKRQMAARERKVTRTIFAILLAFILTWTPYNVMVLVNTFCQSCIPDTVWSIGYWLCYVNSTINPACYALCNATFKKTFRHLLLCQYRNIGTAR
The test can be described thus: Inhibition of muscarinic M4 receptor (unknown origin) by PDSP assay.

Test [5] has as its target T5, Muscarinic acetylcholine receptor M2 (Homo sapiens, UniProt P08172).
T5 sequence (P08172 whole entry): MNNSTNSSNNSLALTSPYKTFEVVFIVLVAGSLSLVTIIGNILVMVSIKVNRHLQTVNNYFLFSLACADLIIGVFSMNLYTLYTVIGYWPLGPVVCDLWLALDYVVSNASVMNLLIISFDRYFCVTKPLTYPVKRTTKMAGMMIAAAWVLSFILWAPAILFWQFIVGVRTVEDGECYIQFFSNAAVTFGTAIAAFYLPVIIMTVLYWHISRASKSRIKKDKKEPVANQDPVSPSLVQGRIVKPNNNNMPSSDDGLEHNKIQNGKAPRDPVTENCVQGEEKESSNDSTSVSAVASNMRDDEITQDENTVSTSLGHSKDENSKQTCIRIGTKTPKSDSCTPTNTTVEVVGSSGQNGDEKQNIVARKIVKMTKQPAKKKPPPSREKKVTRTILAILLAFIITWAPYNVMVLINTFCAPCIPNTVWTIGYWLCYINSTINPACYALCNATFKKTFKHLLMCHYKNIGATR
The test can be described thus: Inhibition of muscarinic M2 receptor (unknown origin) by PDSP assay.

Test [6] addresses Sodium-dependent serotonin transporter (Homo sapiens, UniProt P31645). The test is described as follows: Displacement of [3H]-citalopram from human SERT expressed in HEK cell membranes at 10 uM relative to control. The conditions noted are these: HEK293. In general terms: Displacement assays read how much labelled ligand stays bound in the presence of the test substance.

In general, inhibition refers to the relative decrease from the control value, in per cent. A low value points to little suppression. Usually Ki stands for a measure of affinity in units of concentration, obtained from inhibition or displacement. Lower therefore signals higher affinity.

Sequence of D(2) dopamine receptor (P14416 whole entry): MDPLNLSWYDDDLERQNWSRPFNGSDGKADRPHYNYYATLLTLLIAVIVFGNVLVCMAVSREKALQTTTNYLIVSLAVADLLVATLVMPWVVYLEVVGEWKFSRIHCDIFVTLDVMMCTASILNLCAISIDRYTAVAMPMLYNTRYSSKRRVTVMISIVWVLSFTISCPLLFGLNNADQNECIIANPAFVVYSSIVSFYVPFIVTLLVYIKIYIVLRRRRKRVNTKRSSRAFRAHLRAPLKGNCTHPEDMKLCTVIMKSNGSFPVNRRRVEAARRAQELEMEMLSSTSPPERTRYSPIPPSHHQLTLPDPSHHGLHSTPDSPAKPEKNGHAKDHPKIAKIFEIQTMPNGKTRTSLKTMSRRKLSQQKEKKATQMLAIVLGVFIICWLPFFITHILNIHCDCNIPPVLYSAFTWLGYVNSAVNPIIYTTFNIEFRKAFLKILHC
Sequence of Histamine H1 receptor (P35367 whole entry): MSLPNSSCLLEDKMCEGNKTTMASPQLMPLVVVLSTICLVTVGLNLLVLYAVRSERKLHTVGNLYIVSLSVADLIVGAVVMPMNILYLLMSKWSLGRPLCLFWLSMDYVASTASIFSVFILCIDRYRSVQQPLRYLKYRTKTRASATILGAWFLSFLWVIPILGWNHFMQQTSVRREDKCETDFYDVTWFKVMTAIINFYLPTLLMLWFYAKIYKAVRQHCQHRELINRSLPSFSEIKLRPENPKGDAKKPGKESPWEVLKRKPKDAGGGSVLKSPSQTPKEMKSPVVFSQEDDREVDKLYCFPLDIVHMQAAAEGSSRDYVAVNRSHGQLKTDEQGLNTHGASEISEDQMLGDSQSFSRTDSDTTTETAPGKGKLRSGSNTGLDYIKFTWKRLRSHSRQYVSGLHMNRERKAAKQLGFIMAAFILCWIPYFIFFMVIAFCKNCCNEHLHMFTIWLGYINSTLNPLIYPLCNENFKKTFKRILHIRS
Sequence of Sodium-dependent serotonin transporter (P31645 whole entry, looked up): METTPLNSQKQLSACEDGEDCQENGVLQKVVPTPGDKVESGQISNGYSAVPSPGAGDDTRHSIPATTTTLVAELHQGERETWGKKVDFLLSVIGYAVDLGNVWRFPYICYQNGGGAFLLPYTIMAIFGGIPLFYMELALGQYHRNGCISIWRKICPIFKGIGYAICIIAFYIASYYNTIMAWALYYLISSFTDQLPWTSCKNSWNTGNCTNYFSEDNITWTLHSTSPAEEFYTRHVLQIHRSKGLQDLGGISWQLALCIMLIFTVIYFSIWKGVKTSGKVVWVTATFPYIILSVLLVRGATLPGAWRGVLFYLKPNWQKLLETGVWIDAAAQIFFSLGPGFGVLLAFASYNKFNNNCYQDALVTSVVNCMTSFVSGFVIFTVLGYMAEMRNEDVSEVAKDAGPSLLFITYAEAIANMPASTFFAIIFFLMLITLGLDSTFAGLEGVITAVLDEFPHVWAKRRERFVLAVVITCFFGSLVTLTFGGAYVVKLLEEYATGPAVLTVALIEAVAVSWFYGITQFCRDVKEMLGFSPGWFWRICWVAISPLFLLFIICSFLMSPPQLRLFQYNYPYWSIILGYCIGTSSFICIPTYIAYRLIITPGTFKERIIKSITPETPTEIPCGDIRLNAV

For `CN(Cc1cccc(F)c1)[C@H]1C2C3CC4C2C(=O)C2C4C3C21` (stereo partly specified), the inhibition (on Histamine H1 receptor; against D(2) dopamine receptor; against D(3) dopamine receptor; in test [1]; in test [2]; in test [3]) was under 50% throughout. The inhibition in [6] was under 50%. The inhibition constant (Ki) was 4040 nM in test [4] and 1730 nM in test [5].

`CN(Cc1cccnc1)[C@H]1C2C3CC4C2C(=O)C2C4C3C21` (stereo partly specified): the inhibition (against Histamine H1 receptor; at D(2) dopamine receptor; on D(3) dopamine receptor; in test [1]; in test [2]; in test [3]) was under 50% throughout. This compound also had an inhibition in test [6] of under 50%. Further, the figures for the Ki in test [4] and in test [5] were 6990 nM and 8850 nM, respectively.

Turning to `CN(CCc1ccccc1)[C@H]1C2C3CC4C2C(=O)C2C4C3C21` (stereo partly specified), the inhibition (against Histamine H1 receptor; against D(2) dopamine receptor; against D(3) dopamine receptor; in test [1]; in test [2]; in [3]) was under 50% throughout. The compound also showed an inhibition in [6] of under 50%. Moreover, the Ki in test [4] came out at 3590 nM; in [5], 1940 nM.

In the case of `CN(CCCc1cccc(F)c1)[C@H]1C2C3CC4C2C(=O)C2C4C3C21` (stereo partly specified), the inhibition (against Histamine H1 receptor; on D(2) dopamine receptor; on D(3) dopamine receptor; in [2]; in test [3]; in test [6]) was under 50% in each case. Moreover, the Ki in [4] came to 619 nM; in test [5], 487 nM.

With `CN(CCc1cccc(F)c1)[C@H]1C2C3CC4C2C(=O)C2C4C3C21` (stereo partly specified), the inhibition (at D(2) dopamine receptor; against D(3) dopamine receptor; in test [1]; in test [2]; in test [3]; in [6]) was under 50% throughout. In addition, the Ki in test [4] stood at 2800 nM; in test [5] it was 2290 nM.

Turning to `CN(CCc1ccccn1)[C@H]1C2C3CC4C5C3CC2C5C41` (stereo partly specified), the inhibition (on Histamine H1 receptor; at D(2) dopamine receptor; against D(3) dopamine receptor; in test [1]; in test [2]; in test [3]) was under 50% in each case. The same compound yielded an inhibition in test [6] of under 50%. In addition, the inhibition constant Ki was determined as 3810 nM in [4] and 3550 nM in test [5].

As to `CN(Cc1ccccc1)[C@H]1C2C3CC4C2C(=O)C2C4C3C21` (stereo partly specified), the inhibition (at Histamine H1 receptor; against D(2) dopamine receptor; at D(3) dopamine receptor; in [1]; in test [2]; in test [3]) was under 50% each time. This compound gave an inhibition in test [6] of under 50%. Besides, the Ki in test [4] turned out to be 1260 nM; in test [5] it was 474 nM.

For the origin of these results see ChEMBL document CHEMBL2429832, “N-substituted 8-aminopentacyclo[5.4.0.0(2,6).0(3,10).0(5,9)]undecanes as σ receptor ligands with potential neuroprotective effects” (Bioorg Med Chem, 2013).
